Measurements taken from patent US9597370B2, “Method for promoting hair growth” (INDUSTRIAL TECHNOLOGY RESEARCH INSTITUTE, priority 2013, dated 2017).
Entries after “also recorded” stand apart in the source; their conditions may differ.

Each substance was assayed on β-catenin (assay: TCF reporter assay in HaCaT Keratinocyte cell line). Details: 200 μM peptide; HaCaT Keratinocytes; vs untreated CTL; listed as SEQ ID No: 1 peptide.
Type: cell-based
Procedure: (§1) FIG. 3 illustrates a schematic view of a TCF reporter assay in HaCaT Keratinocyte cell line. TOP represents that the reporter gene has a functional binding site where β-catenin is bound. […] CTL represents that HaCaT Keratinocytes are not treated with any stimulant. iPept-2 means that HaCaT Keratinocytes are treated with the SEQ ID No: 1 peptide.
(§2) The SEQ ID No. 1 peptide is treated in Human Hair Follicular Keratinocytes (HHFK) and HaCaT Keratinocyte to study the hair growth mechanism induced by the SEQ ID No. 1 peptide.
(§3) In the present disclosure, HHFK and HaCaT Keratinocyte are used as cell models for realizing the mechanism. Reporter assay is used as bioactivity assays to identify how the SEQ ID No. 1 peptide improves hair growth.

Substance	activity of β-catenin (relative luciferase activity, TOP/FOP reporter)
SPLAQAVRSSSR (a designed peptide according to experiments) [P1]	increase the activity of β-catenin; also recorded: enhance activity of β-catenin

The substances below were run on β-catenin (assay: TCF reporter assay in Human Hair Follicular Keratinocytes (HHFK) cell line). Details: 200 μM peptide, vs untreated CTL, listed as SEQ ID No: 1 peptide.
Type: cell-based
Procedure: as §1, with “4” for “3”, “Human Hair Follicular Keratinocytes (HHFK)” for “HaCaT Keratinocyte”, “HHFK cell line is” for “HaCaT Keratinocytes are”
as §2, §3

Substance	activity of β-catenin (relative luciferase activity, TOP/FOP reporter)
SPLAQAVRSSSR (a designed peptide according to experiments) [P1]	increase the activity of β-catenin; also recorded: enhance activity of β-catenin

Each substance was assayed on hair follicles on the dorsal skin at the refractory telogen phase (assay: mouse model of hair regeneration (sample applied on dorsal skin at refractory telogen phase)). Details: high dosage level (2000 μM) administrated on the dorsal skin once a day for 10 days; female C57BL/6 mice; negative = no hair growth.
Type: in vivo
Text: The experimental model of the present disclosure is derived from the mouse model of the hair regeneration, which is studied by Dr. Chuong in University of Southern California.
The mouse model adopts female C57BL/6 mice (about 8 weeks).
In accordance with the reports (Muller-Rover et al., 2001; Plikus et al., 2009), after the hair removal on the dorsal skin of the female C57BL/6 mice by wax or uprooting, the hair follicles enter the anagen phase on the seventh day from hair removal. At this time, the dorsal hair will regenerate during the anagen phase, which continues fourteen days. Such step synchronizes all follicles on the dorsal skin.
The hair follicles on the dorsal skin enter the refractory telogen phase through the anagen phase. The refractory telogen phase continues twenty eight days. In the present disclosure, the sample solution is applied on the dorsal skin, where the hair follicle stays at the refractory telogen phase, to observe whether the peptides are beneficial to hair growth.
In some embodiments shown in FIG. 1, after the hair removal of the dorsal skin, the new growth hair is removed again at twenty first day after the first hair removal. […] The sample solution is applied on each of the sections for 10 days. The administration of the sample solution includes, but not limited to, the injection (50 μl) and the coating (10 μl). In addition, the dosage of the sample solution includes, but not limited to, the high dosage level (2000 μM) and the low dosage level (200 μM).
In order to avoid experimental error due to manual operation, a positive control and a negative control are predetermined on two sections. […] The second section 2 is coated with high dosage level of HGP or the pharmaceutical composition for 10 days (once a day). The third section 3 is coated with low dosage level of HGP or the pharmaceutical composition for 10 days (once a day). The fourth section 4 is coated with 100% alcohol for 10 days (once a day). The fourth section 4 is regarded as the negative control. The fifth section 5 is continuously injected with the high dosage of HGP or pharmaceutical composition for 10 days (once a day). The sixth section 6 is continuously injected with the low dosage of HGP or pharmaceutical composition for 10 days (once a day). The HGP prepared for the sections is the same amino acid sequence.
HGP or pharmaceutical composition having the same as referred at Table 1 is implemented through the above-mentioned process and then the hair regeneration condition is recorded every day. Since the period of the refractory telogen phase is 28 days, it is regarded as a negative result that no hair regeneration is observed at thirtieth day after the administration of the sample solution.
The number x of the hair growth in the table 3 means that the hair regeneration condition is observed at the x'th day after the high dosage level is administrated on the dorsal skin. For instance, the number (x=5) means that the hair growth is observed at the fifth day. Furthermore, the symbol NA represents the need for further analysis. […] In addition, the “negative” represents no hair growth by using the peptide in accordance with the experimental number.

Substance	Number x (hair regeneration condition is observed at the x'th day after administration)
AGSFFSGRSSSR (a designed peptide according to experiments) [P37]	22 days
AQAGSFVRSSSR (a designed peptide according to experiments) [P35]	negative
AQAVRSSSR (a designed peptide according to experiments) [P14]	22 days
AVRSSSR (a designed peptide according to experiments) [P16]	negative
GPLAQAVRSSSR (a designed peptide according to experiments) [P27]	22 days
GSFAQAVRSSSR (a designed peptide according to experiments) [P29]	22 days
GSFGQAVRSSSR (a designed peptide according to experiments) [P30]	negative
GSFGSAVRSSSR (a designed peptide according to experiments) [P31]	22 days
GSFGSFVRSSSR (a designed peptide according to experiments) [P32]	negative
GSLAQAVRSSSR (a designed peptide according to experiments) [P28]	negative
LAQAGSVRSSSR (a designed peptide according to experiments) [P34]	negative
LAQAVRSSSR (a designed peptide according to experiments) [P13]	22 days
PLAQAVRSSSR (a designed peptide according to experiments) [P12]	22 days
QAGSFGFRSSSR (a designed peptide according to experiments) [P36]	negative
QAVRSSSR (a designed peptide according to experiments) [P15]	negative
RSSSR (a designed peptide according to experiments) [P5]	22 days
SPLAQ (a designed peptide according to experiments) [P3]	22 days
SPLAQA (a designed peptide according to experiments) [P11]	22 days
SPLAQAGSFGSF (a designed peptide according to experiments) [P23]	negative

Substance	Number x (hair regeneration condition is observed at the x'th day after administration)
SPLAQAV (a designed peptide according to experiments) [P10]	22 days
SPLAQAVGSFGS (a designed peptide according to experiments) [P22]	negative
SPLAQAVR (a designed peptide according to experiments) [P9]	19 days
SPLAQAVRGSFG (a designed peptide according to experiments) [P21]	negative
SPLAQAVRS (a designed peptide according to experiments) [P8]	negative
SPLAQAVRSGSF (a designed peptide according to experiments) [P20]	negative
SPLAQAVRSS (a designed peptide according to experiments) [P7]	22 days
SPLAQAVRSSGS (a designed peptide according to experiments) [P19]	negative
SPLAQAVRSSS (a designed peptide according to experiments) [P6]	negative
SPLAQAVRSSSG [P18]	negative
SPLAQAVRSSSR (a designed peptide according to experiments) [P1]	22 days
SPLAQAVRSSSRT (a designed peptide according to experiments) [P26]	negative
SPLAQAVRSSSRTP (a designed peptide according to experiments) [P25]	negative
SPLAQAVRSSSRTPS (a designed peptide according to experiments) [P4]	22 days
SPLAQFRSSSRG (a designed peptide according to experiments) [P33]	negative
SPLAQGSFGSFG [P24]	negative
VRSSS (a designed peptide according to experiments) [P2]	negative
VRSSSR (a designed peptide according to experiments) [P17]	negative
